Reference: US10966943B2, “Methods and compositions for treatment of asthma or parkinson's disease” (InnoPharmaScreen Inc., priority 2018, dated 2021)
“Also recorded” adds a separate entry of the source.

Columns and labels:
[1] = tested on: MPTP-injected mice; assay: MPTP-induced Parkinson's disease mice (pole test, TH, IL-1b); format: in vivo
Description: For 1-methyl-4-phenyl-1,2,3,6-tetrahydropyridine (MPTP) intoxication, the mice received four intraperitoneal (i.p.) injections of MPTP-HCl (20 mg/kg, free base in saline; Sigma-Aldrich, St. Louis, Mo.) dissolved in PBS at 2 h intervals. Twelve hours after the last MPTP injection, the MPTP-injected mice were received IPS-07004, Montelukast, or IPS-07005 once daily through p.o. administrations.
To examine the effect of IPS-07004 on abnormal behavior of PD mice, Pole test (T-turn and T-LA time) was carried out. PD was induced in mice treated with MPTP (20 mg/kg, I.P) and the mice were administered with IPS-07004 at a dose of 10 mg/kg. And then pole test was performed in the mice. which can measure bradykinesia, a hallmark of Parkinson's disease. The T-turn measures the time the black mouse turns down from the top of the pole. IPS-07004 reduced the T-turn and T-LA time compared with MPTP-treated control group and L-Dopa-treated group, as shown in FIG. 18.

[2] = tested on: IL-8; assay: ELISA of IL-8 in A549 cells induced by LPS or IL-1beta; format: cell-based, human; conditions: dose-dependent
Description: (§1) A549 cells (1×10^5/well) were seeded on a 96-well plate for 16 hrs. After starvation for 24 hrs., the cells were pretreated with LPS or IL-1beta for 4 hrs. The cells were then treated with IPS-07004 for 24 hrs. in a dose-dependent manner. Cytokines levels (IL-6 and IL-8) in media were analyzed in accordance with the manufacturer's specification (BD Biosciences Pharmingen, San Diego, Calif., USA).
(§2) To assess whether IPS-07004 inhibits the expression of IL-6 and IL-8, which play a critical role in asthma pathology, ELISA of the cytokines in A549 cells was employed.

[3] = tested on: TSLP (Thymic Stromal Lymphopoietin); assay: TSLP expression in DNCB mice; format: in vivo; conditions: DNCB (2,4-dinitrochlorobenzene) mice; FIG. 7
[4] = molecular target: T1, human Caspase-1 (Homo sapiens, UniProt P29466); assay: Caspase-1 activity in HMC-1 cell-based assay; conditions: HMC-1 cells; FIG. 7, FIG. 9
T1 construct: endogenous in cells; host or cells: HMC-1 (human mast cell line)
T1 sequence (P29466 120-404): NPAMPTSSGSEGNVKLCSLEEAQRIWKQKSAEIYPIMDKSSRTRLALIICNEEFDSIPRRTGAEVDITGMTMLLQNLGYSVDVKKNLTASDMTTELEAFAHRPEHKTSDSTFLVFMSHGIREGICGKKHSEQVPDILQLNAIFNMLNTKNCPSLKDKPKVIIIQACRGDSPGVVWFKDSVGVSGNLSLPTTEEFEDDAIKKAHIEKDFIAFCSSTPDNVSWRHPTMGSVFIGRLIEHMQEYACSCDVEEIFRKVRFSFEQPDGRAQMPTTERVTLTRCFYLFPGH
From the text: Using HMC-1 (human mast cell line) cell-based assay, IPS-07005 ((IPS-07004+Montelukast) inhibited the activity of Caspase-1, a critical component of inflammasome, to suppress the conversion of Pro-TSLP, IL-1beta, and -IL-18 to active forms as shown in FIG. 9.

[5] = tested on: IL-6; assay: ELISA of IL-6 in A549 cells induced by LPS or IL-1beta; format: cell-based, human; conditions: dose-dependent
Description: as §1, §2

[6] = Mast cell number and serum IgE level; format: in vivo; conditions: FIG. 8
[7] = tested on: TSLP (Thymic Stromal Lymphopoietin); assay: TSLP expression in HMC-1 cells; format: cell-based, human; conditions: FIG. 7
[8] = tested on: A549 lung carcinoma cells; assay: In vitro cell viability assay (MTT); format: cell-based, human; conditions: IPS-07004 for 24 hrs, FIG. 1
Description: A549 lung carcinoma cells (1×10^3/well) were seeded on a 96-well plate for 16 hrs. After starvation for 24 hrs., the cells were pretreated with LPS or IL-1b for 4 hrs. The cells were then treated with IPS-07004 for 24 hrs. in a dose-dependent manner. After 48 hrs. of incubation, MTT [3-(4,5-dimethylthiazol-2-yl)-2,5-diphenyl-tetrazolium bromide] solution (5 mg/ml) was added to each well in an amount of 1/10 of total volume, and the cells were incubated for 2 hrs. at 37° C.
To examine the survival rate for A549 cells treated with IPS-07004, an in vitro cell viability assay was performed using MTT.

[9] = tested on: OVA-challenged mice; assay: OVA-induced asthma in mice (BAL fluid, IgE, lung histology); format: in vivo
Description: 25 mg Ovalbumin (OVA) and 1 mg aluminum hydroxide hydrate (AlOH3) were dissolved in […] of sterile saline solution and sensitized by intraperitoneal administration at 0 and 21 days. At the end of the observation period, all living animals were anesthetized using Isoflurane, and blood was collected from the vena cava/abdominal aorta. Lungs are removed and washed with sterile saline solution. […] of sterile saline was filled in a 1 mL syringe, and the injection and recovery were repeated three times. The washed solution was lightly centrifuged (300 rpm, 10 minutes) and the supernatant was frozen and used for analysis of CXCL1 (ab216951, Abcam PLC) IL-17A (ab199081, Abcam PLC) and CCL3 (ab100726, Abcam PLC). The precipitate was resuspended in the same amount of sterile saline solution and used for eosinophil count and total cell count. The collected blood was left at room temperature for 30 minutes and centrifuged at 3,000 rpm for 20 mins. to separate serum and used for total IgE and Ova-specific IgE analysis. Histopathological examination was performed using lung tissue fixed in formalin. Lung tissues extracted at autopsy were placed in a cassette and submerged in 10% Neutral buffered formalin (10% NBF) at least 20 times the tissue volume. After fixation, the tissue was cut to about 4 mm in thickness and fabricated into paraffin blocks after general tissue treatment and embedding. […]

[10] = MPTP (20 mg/kg, I.P) mice, 10 mg/kg, compared with MPTP-treated control group and L-Dopa-treated group, FIG. 18
[11] = A549 cells induced by LPS, FIG. 2

In the case of `[H]/N=C(\N/C(=N/[H])Nc1ccc(Cl)cc1)NC(C)C` [IPS-07004, proguanil], the “Pole test T-LA time” value [1, 10] is reported as “reduced”, the “Pole test T-turn time” value [1, 10] is reported as “reduced” and the “tyrosine hydroxylase (TH) level in striatum and Substantia nigra (immunohistochemistry)” value ([1]; PD mice brain, compared with MPTP-treated control group and L-Dopa-treated group, FIG. 19) is reported as “decreased”. For the same compound, the “IL-1b expression in PD brain” value ([1]; PD mice, FIG. 20) was “reduced”, the “expression level of IL-8” value ([2]; A549 cells induced by IL-1beta) was “reduced” and the “expression level of IL-8” value [2, 11] was “reduced”. For the same compound, the TSLP expression [3] was “inhibitory effect”, the Caspase-1 activity [4] was “inhibitory effect; also recorded: inhibited” and the “expression level of IL-6” value ([5]; A549 cells induced by IL-1beta) was “reduced”. The “expression level of IL-6” value [5, 11] was “reduced”, the mast cell number [6] was “inhibitory effect” and the “serum IgE level” value [6] was “inhibitory effect”. For the same compound, the TSLP expression [7] was “inhibitory effect”, the “viability of A549 cells (MTT)” value ([8]; cells induced by IL-1beta) was “little or no effect” and the “viability of A549 cells (MTT)” value ([8]; cells induced by LPS) was “little or no effect”. The “eosinophil number in BALF” value ([9]; compared with the OVA-challenged group, FIGS. 13B, 13C) was “decreased”.

In the case of `CC(C)(O)c1ccccc1CC[C@@H](SCC1(CC(=O)O)CC1)c1cccc(/C=C/c2ccc3ccc(Cl)cc3n2)c1` [Montelukast, montelukast], the “number of goblet cells (PAS staining of lung sections)” value ([9]; high dose of Montelukast, versus OVA-challenged group, FIGS. 15A and 15B) is reported as “significantly lower”.
